In patent US11345696B2, “Compounds and methods of treating or ameliorating an IL-1R-mediated disease or disorder using same” (DREXEL UNIVERSITY, priority 2014, dated 2022):

Tests used:
SSc fibroblasts = assay: Total collagen (hydroxyproline) in culture media of SSc fibroblasts; assay type: cell-based; conditions: for total collagen secretion into the culture media as measured by hydroxyproline: SSc dermal fibroblasts, 48 h, 100 μM or 10 μM compound (FIG. 5); for blocking collagen synthesis: in vitro, fibroblasts derived from scleroderma patients
Description: FIG. 5 is a set of graphs illustrating target validation studies. […] SSc dermal fibroblasts were treated for 48 h with 100 μM or 10 μM of compound, then media was collected and total collagen was measured by hydroxyproline. Samples were tested in triplicate across different patient samples and expressed as the mean±SEM (n=4). *p<0.0001, **p=0.02.
SSc fibroblasts were treated for 48 h with 1 nM compound, and then culture media was recovered and hydroxyproline was measured. Samples were tested in triplicate across different patient samples and expressed as the mean±SEM (n=3 independent patient samples).
SSc fibroblasts were cultured with selected molecules of the invention, and total collagen synthesis was assessed with hydroxyproline. […] KA862 and KA494 were selected for further in vitro evaluation.

[1] = system: normal fibroblasts stimulated with bleomycin; assay: Bleomycin induced fibrosis in vitro model: normal fibroblasts stimulated with bleomycin, hydroxyproline in culture media; assay type: cell-based; conditions: for IC50: Fibroblast, decreasing concentrations of compound against 10 μM bleomycin, 48 h, hydroxyproline in culture media (FIG. 9); for blocking collagen synthesis: in vitro, normal fibroblasts stimulated with 10 μM bleomycin
Description: FIG. 7 is a set of bar graphs illustrating the finding that compounds of the invention are effective against bleomycin induced fibrosis in an in vitro model. Top graph: normal fibroblasts stimulated with bleomycin (Bleo)+IL-1RA (n=3); bottom graph: normal fibroblasts stimulated with Bleo+KA862 (n=3).
FIG. 9 is a set of graphs illustrating the IC50 determination for KA521, KA222, KA306, and KA695. Decreasing concentrations of compound were tested against 10 μM bleomycin for 48 h and hydroxyproline measured in the culture media.
Without wishing to be limited by any theory, designing a focused screening library allows for the identification of analogs with favorable drug-like properties and binding efficacy against IL-1R. Compounds of interest may be tested in vitro using patient-derived scleroderma fibroblasts, normal fibroblasts treated with bleomycin to increase collagen synthesis, and in vivo in scleroderma animal models.
FIG. 7 illustrates the finding that compounds of the invention are effective against bleomycin induced fibrosis. Normal fibroblasts were treated with bleomycin and either IL-1RA or a compound of the invention, so as to inhibit collagen.

Row | Structure (SMILES) | total collagen secretion into the culture media as measured by hydroxyproline (SSc fibroblasts) | IC50 [1] | blocking collagen synthesis (SSc fibroblasts) | blocking collagen synthesis [1]
1 | O=C(CN(Cc1ccc2c(c1)OCO2)S(=O)(=O)c1ccc(S(=O)(=O)NC2CCCC2)cc1)Nc1ccccc1 [KA199, N^2-(1,3-benzodioxol-5-ylmethyl)-N^2-{[4-(cyclopentylsulfamoyl)phenyl]sulfonyl}-N-phenyl glycinamide] | effective at reducing total collagen secretion | – | – | –
2 | Cc1nn(-c2ccccc2)c2c1C(c1c(O)ccc3ccccc13)C(C#N)=C(N)O2 (stereo not drawn) [KA222, 6-amino-4-(2-hydroxynaphthalen-1-yl)-3-methyl-1-phenyl-1,4-dihydropyrano[2,3-c]pyrazole-5-carbonitrile] | – | ~1 nM | – | –
3 | COC(=O)C1=C(C)NC2=C(C(=O)CC(c3ccc(OC)c(OC)c3)C2)C1c1cccc2ccccc12 (stereo not drawn) [KA306, methyl 7-(3,4-dimethoxyphenyl)-2-methyl-4-(naphthalen-1-yl)-5-oxo-1,4,5,6,7,8-hexahydroquinoline-3-carboxylate] | – | ~1 nM | – | –
4 | O=C(C[S+]([O-])CC(=O)N(CC(=O)NC1CCCCC1)c1cccc2ccccc12)Nc1ccc(F)cc1 (stereo not drawn) [KA494, N-(2-(cyclohexylamino)-2-oxoethyl)-2-((2-((4-fluorophenyl)amino)-2-oxoethyl)sulfinyl)-N-(naphthalen-1-yl)acetamide] | effective at reducing total collagen secretion | – | efficacious in blocking collagen synthesis | efficacious in blocking collagen synthesis
5 | COc1cccc(NC(=O)Cn2nc(-c3ccncc3)nc2SCC(=O)NC2CCCC2)c1 [KA529, (2-[5-{[2-(cyclopentylamino)-2-oxoethyl]sulfanyl}-3-(4-pyridinyl)-1H-1,2,4-triazol-1-yl]-N-(3-methoxyphenyl)acetamide)] | effective at reducing total collagen secretion | – | – | –
6 | O=C(C[S+]([O-])CC(=O)N(CC(=O)NC1CCCC1)Cc1ccccc1Cl)Nc1ccc2c(c1)OCO2 (stereo not drawn) [KA680, (N^2-({[2-(1,3-benzodioxol-5-ylamino)-2-oxoethyl]sulfinyl}acetyl)-N^2-(2-chlorobenzyl)-N-cyclopentylglycinamide)] | effective at reducing total collagen secretion | – | – | –
7 | COCCOC(=O)C1=C(C)NC2=C(C(=O)CCC2)C1c1cccc2ccccc12 (stereo not drawn) [KA695, 2-methoxyethyl 2-methyl-4-(naphthalen-1-yl)-5-oxo-1,4,5,6,7,8-hexahydroquinoline-3-carboxylate] | – | ~1 nM | – | –
8 | O=C(CSc1nnc(Cc2csc(Nc3cccc(Cl)c3)n2)n1Cc1ccco1)OC1CCCCC1 [KA862, cyclohexyl 2-((5-((2-((3-chlorophenyl)amino)thiazol-4-yl)methyl)-4-(furan-2-ylmethyl)-4H-1,2,4-triazol-3-yl)thio)acetate] | effective at reducing total collagen secretion | – | efficacious in blocking collagen synthesis | efficacious in blocking collagen synthesis
